Broadly, the EC50 is the midpoint of the concentration-response curve. Low values mean a more potent agent, high ones a less potent agent.

The values that follow come from article PMC5881522, “Molecular Defects in Cardiac Myofilament Ca^2+-Regulation Due to Cardiomyopathy-Linked Mutations Can Be Reversed by Small Molecules Binding to Troponin” (Frontiers in Physiology, 2018).

“Also recorded” adds a separate entry of the source.

The target in assay [1] is T1, tropomyosin E180G mutant-containing thin filaments (Homo sapiens, UniProt P19429+P45379+P63316).
T1 construct: isolate troponin from 100 mg of donor heart tissue; from tissue; host or cells: troponin: human donor heart; tropomyosin: baculovirus/Sf9 (gift); actin: rabbit fast-twitch skeletal muscle
Put plainly: Single [Ca2+] in vitro motility assay screen for re-coupling. It counts as biochemical. To be noted: for Coupling Difference (Initial Screen E180G): 100 μM compound, difference between motility (%) in phosphorylated and unphosphorylated thin filaments, TPM1 E180G, >10% = re-coupling; for EC50: dose-response of % motility difference at 0.037 μM Ca2+, Hill fit. The protocol: (§1) Thin filaments were reconstituted with 10 nM rabbit skeletal or mouse cardiac muscle α-actin (labeled with TRITC phalloidin), tropomyosin (40–60 nM), and troponin (60 nM) to study Ca^2+-regulation of filament motility by the quantitative in vitro motility assay (IVMA) (Fraser and Marston, [1995]; Messer et al., [2007]). Thin filament movement over a bed of immobilized rabbit fast skeletal muscle heavy meromyosin (100 μg/ml) was compared in paired motility cells, in which troponin varied by a single factor (mutation, phosphorylation state, or treatment with drug). The temperature was set to 29°C. Filament movement was recorded and analyzed as previously described (Marston et al., [1996]), yielding two parameters, the fraction of filaments moving and the speed of moving filaments. Only the fraction of filaments motile is used in this study.
For drug screening, motility was measured with paired phosphorylated and unphosphorylated tropomyosin E180G mutant-containing thin filaments at a fixed 0.037 μM Ca^2+. Most assays were single measurements.
For the rapid screening of compounds, we devised a single Ca^2+ concentration assay. This is illustrated in Figures 2A,B for quercetin. The test system contains skeletal muscle actin, human sequence recombinant tropomyosin 1.1 containing the E180G HCM-associated mutation and human cardiac troponin from donor hearts in the phosphorylated and unphosphorylated form. At 0.037 μM Ca^2+ the filaments are about 40% motile irrespective of phosphorylation level whilst when quercetin is added the phosphorylated Ca^2+ activity curve shifts to the right and % motility at 0.037 μM Ca^2+ drops, whilst the unphosphorylated level is unchanged. We have set a difference between phosphorylated and unphosphorylated >10% as indicating re-coupling activity. This assay method can also be used to construct a dose-response curve as shown. We investigated compounds in 4 categories.
Figure 2 Single [Ca^2+] screen for re-coupling compounds. […] Solid lines, phosphorylated state; dotted lines, unphosphorylated state. Purple lines and points, E180G thin filaments; green lines and points, E180G thin filaments + Quercetin (B) Dose -response curve for quercetin recoupling activity measured at a constant concentration of 0.037 μM Ca^2+. INSET, kinetic analysis of dose response curve; difference between phosphorylated and unphosphorylated states is plotted against quercetin concentration. The Hill equation is fitted to the data, EC50 = 8 μM. (C,D) The effect of 100 μM drug treatment on the difference between % of motility of phosphorylated and unphosphorylated tropomyosin E180G mutant-containing thin filaments at 0.037 μM Ca^2+. (C) EGCG-related molecules (for structures 1–28 see Figure S1 and Table 1). (D) Silybin, related compounds and other HsP90 inhibitors and Ca^2+ desensitizers. The threshold for positive re-coupling was set at a 10% difference (dotted line).

Assay [2] has as its system isolated cardiomyocytes from ACTC E99K HCM transgenic mice. Put plainly: Lusitropic effect of dobutamine in isolated cardiomyocytes. To be noted: blunted in ACTC E99K mouse cardiomyocytes; preliminary experiments. It counts as cell-based.
Text: The main effect of uncoupling of the modulation of Ca^2+ sensitivity by TnI phosphorylation is the loss of the lusitropic response to beta adrenergic stimulation, which is usually accompanied by blunting of the whole physiological adrenergic response.
The target of assay [3] is T2, thin filaments containing TnC G159D (TNNC1 G159D, DCM) (Homo sapiens, UniProt P19429+P45379+P63316, G159D).
T2 construct: TnC G159D mutant troponin was extracted from a mutant human heart sample; from tissue; host or cells: mutant human heart sample (troponin); rabbit skeletal muscle (actin)
The experiment in a line: IVMA Ca2+-activation curves, TNNC1 G159D. It counts as biochemical. To be noted: phosphorylated and unphosphorylated TnC G159D thin filaments. The text has this: Recombinant human sequence tropomyosin was a gift from Kristen Nowak and Elyshia MacNamara, University, Western Australia. Wild-type α-tropomyosin (Tpm1.1) and mutant E180G tropomyosin were expressed in a baculovirus/Sf9 system (Akkari et al., [2002]; Marston et al., [2013]). Skeletal muscle F-actin and myosin were isolated from rabbit fast-twitch skeletal muscle as previously described (Messer et al., [2007]). TnC G159D mutant troponin was extracted from a mutant human heart sample (Dyer et al., [2009]), E99K mutant cardiac actin was extracted from the E99K transgenic mouse heart (Song et al., [2013]).
Thin filaments were reconstituted with 10 nM rabbit skeletal or mouse cardiac muscle α-actin (labeled with TRITC phalloidin), tropomyosin (40–60 nM), and troponin (60 nM) to study Ca^2+-regulation of filament motility by the quantitative in vitro motility assay (IVMA) (Fraser and Marston, [1995]; Messer et al., [2007]). […] Filament movement was recorded and analyzed as previously described (Marston et al., [1996]), yielding two parameters, the fraction of filaments moving and the speed of moving filaments. […]
(§2) The fraction motile was measured over a range of Ca^2+ concentrations to generate Ca^2+-activation curves. […]

For another assay, the target named is T3, wild-type thin filaments (Homo sapiens, UniProt P19429+P45379+P63316).
T3 construct: isolate troponin from 100 mg of donor heart tissue; from tissue; host or cells: troponin: human donor heart; actin: rabbit skeletal muscle
Put plainly: IVMA Ca2+-activation curves, wild-type thin filaments. It counts as biochemical. As to conditions: ratio of EC50 in presence and absence of compound, phosphorylated and unphosphorylated states. How it is done: as §1
The fraction motile was measured over a range of Ca^2+ concentrations to generate Ca^2+-activation curves. The data were fitted to the 4-variable Hill equation to yield a value for EC50 and nH. Most assays of the effect of compounds are single measurements.
EC50 for Ca2+ activation of phosphorylated and unphosphorylated thin filaments incorporating troponin from HCM and DCM tissue samples that are uncoupled was measured by in vitro motility assay in the presence and absence of 100 µM EGCG. […]

The subject of assay [4] is mutant-containing thin filaments. The experiment in a line: IVMA Ca2+-activation curves, collected uncoupled mutant thin filaments. It counts as biochemical. To be noted: every uncoupling mutation tested; 100 μM EGCG. How it is done: as §1, with “Only the fraction of filaments motile is used in this study.” left out
as §2
We measured the Ca^2+ activation of contractility using an in vitro motility assay that measures the movement of reconstituted thin filaments over a bed of immobilized myosin heads. […] Thus, the effect of EGCG is independent of the mutation that induced uncoupling; in addition, both in man and cat, HCM cases were found where no mutation in sarcomeric genes was detected yet the thin filaments were uncoupled and they could also be re-coupled by EGCG (Bayliss et al., [2012]; Messer et al., [2016]). […]

In assay [5] the test system is transgenic HCM mouse model. More on the design: method as in Tadano et al., 2010. As to conditions: ref Tadano et al., 2010; cited from earlier work.
[6] abbreviates: dose response of motile percentage, Figure S2B.

Regarding `COc1cc([C@@H]2Oc3cc([C@H]4Oc5cc(O)cc(O)c5C(=O)[C@@H]4O)ccc3O[C@H]2CO)ccc1O` [Silybin B], in assay [1] (0.037 μM Ca2+), the “Coupling Difference (Initial Screen E180G)” value (“Coupling Difference” for short) was 55%. For the same compound, in assay [1] (setting [6]), the “dose at which recoupling begins” value is 50 µM and the “dose of peak recoupling” value turned out to be 100 µM. The same compound displayed an EC50 in assay [1] of 39 µM. For the same compound, the “lusitropic effect of dobutamine, in words” value in assay [2] is recorded as “restored”. In assay [3], the “effect on Ca2+-activation curves (desensitizer / re-coupler), in words” value is “pure recoupler; also recorded: pure recoupling”.
Regarding `O=C(O[C@@H]1Cc2c(O)cc(O)cc2O[C@@H]1c1cc(O)c(O)c(O)c1)c1cc(O)c(O)c(O)c1` [EGCG, epigallocatechin-3 gallate], on wild-type thin filaments, the “effect on Ca2+-sensitivity of wild-type thin filaments, in words” value is “significant desensitizer”. The “Coupling Difference” value in assay [1] (0.037 μM Ca2+) stood at 23.0%. In assay [1], this compound returned an EC50 of 59 µM. For the same compound, the “restoration of coupling in uncoupled thin filaments, in words” value in assay [4] is “restore the coupling”. Besides, the “impaired pump function due to diastolic dysfunction, in words” value in assay [5] is listed as “restored the impaired pump function”. Further, the “lusitropic effect of dobutamine, in words” value in assay [2] is “anomalous”.
Take `COc1cc([C@H]2Oc3cc([C@H]4Oc5cc(O)cc(O)c5C(=O)[C@@H]4O)ccc3O[C@@H]2CO)ccc1O` [Silybin A]: in assay [1] (0.037 μM Ca2+), the “Coupling Difference” value was 5%. Besides, the “re-coupling activity (in words)” value in assay [1] (E180G thin filaments, 0.037 μM Ca2+) is given as “complex dose sensitive”. Also, the “effect on Ca2+-activation curves (desensitizer / re-coupler), in words” value in assay [3] is listed as “pure desensitizer”.
